Patent US20080207751A1, “Sulindac Derivatives for Treatment of Cancer” (Sulfidris s.r.l., priority 2005, published 2008)
Read-outs that look alike come from different tables or passages of the source.

Assays:
[1] = test system: Aberrant crypt foci (ACF); experiment: Aberrant crypt foci (ACF) induced by 1,2-dimethylhydrazine in rats; type: in vivo; conditions: DMH-induced ACF, Sprague-Dawley rats; equivalent anti-inflammatory doses, twice daily orogastric gavage for 3 weeks
Description: Aberrant crypt foci (ACF) were induced in Sprague-Dawley rats by using 1,2-dimethylhydrazine (DMH). Test agents or vehicle were then administered for 3 weeks, twice daily through orogastric gavage.
At the end of this period, the number and multiplicity of ACF were determined.

[2] = test system: Caco 2 cells; experiment: Anti-proliferative activity in Caco 2 cells; type: cell-based
Description: In order to analyze sulindac derivatives in combination therapies for treatment of colon cancer, the compound of example 4 was tested in Caco 2 cell lines comparatively with other known therapeutic agents at different concentrations.
The results of the treatment with 5-FU, celecoxib and docetaxel in Caco 2 cell are depicted in the Table 3 below reported.
In another experiment the compound of example 4 at IC50 concentration was incubated with submaximal concentrations of the anti-tumoral standard agents.

[3] = Five-day oral safety study in rats (deaths, gastrointestinal ulcers at autopsy); type: in vivo; conditions: male rats, once daily by gavage for five days; sulindac sulfoxide 20 mg/kg, compound example 1 36 mg/kg
Description: Thirty male rats (150-200 g) were divided into three groups of 10 animals/group and treated with vehicle, sulindac sulfoxide (20 mg/kg) and the compound example 1 (36 mg/kg) for five days once daily by gavage.
At the fifth day survival animals were sacrificed 6 hr after the treatment by an overdose of ether, and autopsied to detect any pathological changes, particularly in the gastrointestinal tract.

Structure (SMILES) | reduction of the number of ACF [1] | IC50 ([2]; Homo sapiens) | other results
Cc1ccc(-c2cc(C(F)(F)F)nn2-c2ccc(S(N)(=O)=O)cc2)cc1 [celecoxib] | 22% | 60 µM | 
CC1=C(CC(=O)Oc2ccc(-c3cc(=S)ss3)cc2)c2cc(F)ccc2/C1=C\c1ccc(S(C)(=O)=O)cc1 [Example 3, (Z)-5-Fluoro-2-methyl-1-[[4-(methylsulfone)phenyl]methylene]-1H-indene-3-acetic acid 4-(thioxo-5H-[1,2]dithiol-3-yl)-phenyl ester] | 45% |  | 
CC1=C(CC(=O)Oc2ccc(-c3cc(=S)ss3)cc2)c2cc(F)ccc2/C1=C\c1ccc([S+](C)[O-])cc1 (centres unmarked) [Example 1, (Z)-5-Fluoro-2-methyl-1-[[4-(methylsulfinyl)phenyl]methylene]-1H-indene-3-acetic acid 4-(thioxo-5H-1-[1,2]dithiol-3-yl)-phenyl ester] |  |  | % deaths [3]: 0%; % gastrontestinal ulcers [3]: 10%
CC1=C(CC(=O)O)c2cc(F)ccc2/C1=C\c1ccc(S(C)(=O)=O)cc1 [sulindac sulfone, (Z)-5-Fluoro-2-methyl-1-[[4-(methylsulfone)phenyl]methylene]-1H-indene-3-acetic acid] | 36% |  | 
CC(=O)O[C@@]12CO[C@@H]1C[C@H](O)[C@@]1(C)C(=O)[C@H](O)C3=C(C)[C@@H](OC(=O)[C@H](O)[C@@H](NC(=O)OC(C)(C)C)c4ccccc4)C[C@@](O)([C@@H](OC(=O)c4ccccc4)[C@H]21)C3(C)C [Docetaxel] |  | 0.005 µM | 
CC1=C(CC(=O)OCCSS(C)(=O)=O)c2cc(F)ccc2/C1=C\c1ccc(S(C)(=O)=O)cc1 [Example 8, (Z)-5-Fluoro-2-methyl-1-[[4-(methylsulfone)phenyl]methylene]-1H-indene-3-acetic acid 2-methanesulfonylsulfanylethyl ester] | 60% |  | 
CC1=C(CC(=O)O)c2cc(F)ccc2/C1=C\c1ccc([S+](C)[O-])cc1 (centres unmarked) [Sulindac sulfoxide, (Z)-5-Fluoro-2-methyl-1-[[4-(methylsulfinyl)phenyl]methylene]-1H-indene-3-acetic acid] | 46% |  | % deaths [3]: 70%; % gastrontestinal ulcers [3]: 100%
CC1=C(CC(=O)OCCSS(C)(=O)=O)c2cc(F)ccc2/C1=C\c1ccc([S+](C)[O-])cc1 (centres unmarked) [Example 4, (Z)-5-Fluoro-2-methyl-1-[[4-(methylsulfinyl)phenyl]methylene]-1H-indene-3-acetic acid 2-methanesulfonylsulfanylethyl ester] |  | 55 µM | anti-proliferative activity in combination with anti-tumoral standard agents ([2]; compound at IC50 concentration incubated with submaximal concentrations of standard agents): marked potentiation
O=c1[nH]cc(F)c(=O)[nH]1 [Example 5-FU] |  |  | IC50 [2]: 28 µM
